Assays:
Assay type in all cases: biochemical
[1] = target: S. pyogenes DNA polymerase holoenzyme (PolC, tau-complex, β) (Streptococcus pyogenes, UniProt Q8NZB5); details: read-out: IC50 S. pyog.
[2] = target: Y. pestis DNA polymerase III holoenzyme (Yersinia pestis, UniProt Q0WHY6); details: read-out: IC50 Y. pestis
[3] = target: Pol III holoenzyme; details: read-out: low μM activity as Pol III holoenzyme inhibitor
[4] = target: Y. pestis DNA polymerase III holoenzyme

S. pyogenes DNA polymerase holoenzyme (PolC, tau-complex, β), sequence (Q8NZB5 whole entry): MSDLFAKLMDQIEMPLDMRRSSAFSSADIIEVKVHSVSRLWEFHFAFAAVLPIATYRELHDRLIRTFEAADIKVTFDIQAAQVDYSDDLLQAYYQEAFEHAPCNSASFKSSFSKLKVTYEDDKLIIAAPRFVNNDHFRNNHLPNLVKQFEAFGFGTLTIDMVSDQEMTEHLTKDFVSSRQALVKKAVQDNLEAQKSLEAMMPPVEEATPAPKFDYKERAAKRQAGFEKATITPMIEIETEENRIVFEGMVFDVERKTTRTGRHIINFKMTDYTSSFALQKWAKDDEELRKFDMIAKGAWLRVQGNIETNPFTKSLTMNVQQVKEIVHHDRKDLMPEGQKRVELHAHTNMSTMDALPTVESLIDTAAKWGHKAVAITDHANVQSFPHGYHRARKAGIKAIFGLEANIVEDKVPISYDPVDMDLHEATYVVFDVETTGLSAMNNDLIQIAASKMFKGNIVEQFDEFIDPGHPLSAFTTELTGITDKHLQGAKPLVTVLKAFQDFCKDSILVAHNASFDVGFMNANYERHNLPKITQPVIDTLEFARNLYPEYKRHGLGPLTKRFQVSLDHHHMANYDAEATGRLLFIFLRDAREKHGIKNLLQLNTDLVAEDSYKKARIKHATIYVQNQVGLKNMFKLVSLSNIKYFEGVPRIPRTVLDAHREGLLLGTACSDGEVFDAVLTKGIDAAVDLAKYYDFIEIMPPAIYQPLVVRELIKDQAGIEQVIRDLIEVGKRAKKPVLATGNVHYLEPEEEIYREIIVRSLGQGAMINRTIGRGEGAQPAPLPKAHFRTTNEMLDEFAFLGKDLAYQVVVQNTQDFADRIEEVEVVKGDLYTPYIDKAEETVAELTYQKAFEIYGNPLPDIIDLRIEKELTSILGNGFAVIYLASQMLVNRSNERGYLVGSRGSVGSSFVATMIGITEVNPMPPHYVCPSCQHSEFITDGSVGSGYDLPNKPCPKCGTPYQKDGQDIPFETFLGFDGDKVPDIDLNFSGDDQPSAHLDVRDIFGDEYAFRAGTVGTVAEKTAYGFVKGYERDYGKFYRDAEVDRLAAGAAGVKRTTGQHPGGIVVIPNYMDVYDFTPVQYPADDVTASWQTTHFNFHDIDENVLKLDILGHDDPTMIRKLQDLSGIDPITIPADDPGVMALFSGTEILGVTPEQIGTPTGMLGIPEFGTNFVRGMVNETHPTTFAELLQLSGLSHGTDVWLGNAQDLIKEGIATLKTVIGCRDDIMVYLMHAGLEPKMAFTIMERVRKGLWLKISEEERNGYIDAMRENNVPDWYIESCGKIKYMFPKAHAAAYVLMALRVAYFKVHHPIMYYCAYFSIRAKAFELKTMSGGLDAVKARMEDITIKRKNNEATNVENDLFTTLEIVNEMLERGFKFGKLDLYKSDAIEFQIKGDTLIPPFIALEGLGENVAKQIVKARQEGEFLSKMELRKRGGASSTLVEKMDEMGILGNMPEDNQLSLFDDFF
S. pyogenes DNA polymerase holoenzyme (PolC, tau-complex, β), sequence (Q7DAL6 1-556 partner): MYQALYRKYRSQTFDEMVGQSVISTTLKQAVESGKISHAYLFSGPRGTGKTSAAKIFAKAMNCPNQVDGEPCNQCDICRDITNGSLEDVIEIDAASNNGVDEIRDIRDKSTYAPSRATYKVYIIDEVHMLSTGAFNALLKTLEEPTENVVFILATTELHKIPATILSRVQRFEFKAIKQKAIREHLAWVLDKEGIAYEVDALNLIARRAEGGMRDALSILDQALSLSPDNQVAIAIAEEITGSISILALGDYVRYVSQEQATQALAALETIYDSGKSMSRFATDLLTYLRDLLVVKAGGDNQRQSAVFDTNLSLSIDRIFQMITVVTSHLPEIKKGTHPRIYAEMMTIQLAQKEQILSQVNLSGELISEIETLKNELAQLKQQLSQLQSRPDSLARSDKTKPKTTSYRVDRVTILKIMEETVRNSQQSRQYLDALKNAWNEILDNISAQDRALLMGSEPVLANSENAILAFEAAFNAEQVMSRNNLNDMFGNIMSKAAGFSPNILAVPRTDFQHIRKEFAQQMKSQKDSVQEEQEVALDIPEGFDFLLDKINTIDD
S. pyogenes DNA polymerase holoenzyme (PolC, tau-complex, β), sequence (Q7DAL5 1-346 partner): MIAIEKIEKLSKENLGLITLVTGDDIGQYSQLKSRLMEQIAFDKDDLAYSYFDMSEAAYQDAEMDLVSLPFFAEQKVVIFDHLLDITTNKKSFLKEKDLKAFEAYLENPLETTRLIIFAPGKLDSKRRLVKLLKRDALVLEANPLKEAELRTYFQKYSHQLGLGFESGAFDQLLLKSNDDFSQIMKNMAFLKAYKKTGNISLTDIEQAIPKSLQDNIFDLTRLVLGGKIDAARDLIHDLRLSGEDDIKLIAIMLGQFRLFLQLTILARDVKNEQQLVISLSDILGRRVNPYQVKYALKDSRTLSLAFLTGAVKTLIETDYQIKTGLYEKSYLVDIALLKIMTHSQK
S. pyogenes DNA polymerase holoenzyme (PolC, tau-complex, β), sequence (Q9A209 1-378 partner): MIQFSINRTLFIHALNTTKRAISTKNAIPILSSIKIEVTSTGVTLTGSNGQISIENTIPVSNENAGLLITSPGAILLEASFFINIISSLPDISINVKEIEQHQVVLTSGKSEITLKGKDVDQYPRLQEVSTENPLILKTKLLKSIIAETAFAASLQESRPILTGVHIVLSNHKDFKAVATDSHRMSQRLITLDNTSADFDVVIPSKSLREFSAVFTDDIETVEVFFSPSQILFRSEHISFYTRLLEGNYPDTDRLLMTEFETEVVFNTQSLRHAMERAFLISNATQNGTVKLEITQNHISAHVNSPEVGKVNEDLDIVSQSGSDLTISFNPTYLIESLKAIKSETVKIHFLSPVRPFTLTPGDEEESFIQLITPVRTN

Row | Structure (SMILES) | IC50 [1] [µM] | IC50 [2] [µM] | IC50 [3] [µM] | IC50 [4] [µM]
1 | Cc1cccc(C)c1/C=C1\SC(=S)NC1=O | 271 | 302 |  | 
2 | O=C1NC(=S)S/C1=C\c1cc([N+](=O)[O-])ccc1SC1CCCCC1 | 8.73 | 9.94 |  | 
3 | COc1ccc(F)c(/C=C2\SC(=S)NC2=O)c1 | 193 | 179 |  | 
4 | CN(C)c1ccc(/C=C2\SC(=S)NC2=O)c([NH+]([O-])O)c1 (stereo not shown) | 44.4 | 22.6 |  | 
5 | O=C1NC(=S)S/C1=C\c1cc(Cl)ccc1[N+](=O)[O-] | 163 | 267 |  | 
6 | COc1ccc(/C=C2\SC(=S)NC2=O)cc1[N+](=O)[O-] | > 320 | 48.9 |  | 
7 | CCOc1c(Br)cc(Br)cc1/C=C1\SC(=S)NC1=O | 13.5 | 22.3 |  | 
8 | O=C1NC(=S)S/C1=C\c1cc([N+](=O)[O-])ccc1N1CCCCC1 | 23.7 | 41.2 |  | 
9 | O=C1NC(=S)S/C1=C\c1ccc(F)c(F)c1 | 181 | 241 |  | 
10 | O=C1NC(=S)S/C1=C\c1cc(Br)cc(Br)c1O | > 320 | > 320 |  | 
11 | O=C1NC(=S)S/C1=C\c1ccc(Cl)cc1[N+](=O)[O-] | 133 | 63.9 |  | 
12 | O=C1NC(=S)S/C1=C\c1cc([N+](=O)[O-])ccc1N1CCOCC1 | 192 | 108 |  | 
13 | O=C1NC(=S)SC1=Cc1cc([N+](=O)[O-])ccc1Sc1ccc(Cl)cc1 [5-[2-(4-Chloro-phenylsulfanyl)-5-nitro-benzylidene]-2-thioxo-thiazolidin-4-one] |  |  | 3 to 7 | 
14 | N=C1NC(=O)/C(=C/c2ccc(Cl)c(Cl)c2)S1 | 145 | 116 |  | 
15 | COc1cccc(/C=C2\SC(=S)NC2=O)c1F | 277 | 54.1 |  | 
16 | CC(C)Oc1c(Br)cc(Br)cc1/C=C1\SC(=S)NC1=O | 7.11 | 18.8 |  | 
17 | O=C1NC(=S)S/C1=C\c1cc(Br)cc(Br)c1 | 14.2 | 22 |  | 
18 | O=C1NC(=S)S/C1=C\c1cc(Br)ccc1F | 64.5 | 95.9 |  | 
19 | C/N=C1\NC(=O)/C(=C/c2ccc(Cl)c(Cl)c2)S1 | 112 | 286 |  | 
20 | O=C1NC(=S)S/C1=C\c1c(F)cccc1F | > 320 | 196 |  | 
21 | O=C1NC(=S)S/C1=C\c1cc2c(cc1[N+](=O)[O-])OCO2 | 98.3 | 144 |  | 
22 | COc1c(Br)cc(Br)cc1/C=C1\SC(=S)NC1=O | 18.1 | 31.4 |  | 
23 | COc1cccc(F)c1/C=C1\SC(=S)NC1=O | > 320 |  |  | 195
24 | O=C1NC(=S)S/C1=C\c1cccc(F)c1F | 214 | 212 |  | 

Row | Structure (SMILES) | IC50 [1] [µM] | IC50 [2] [µM] | IC50 [3] [µM] | IC50 [4] [µM]
25 | O=C1NC(=S)S/C1=C\c1ccc([N+](=O)[O-])c(O)c1 |  | 162 |  | 
26 | O=C1NC(=S)S/C1=C\c1ccc(N2CCOCC2)c([N+](=O)[O-])c1 | > 320 | > 320 |  | 
27 | C/N=C1\NC(=O)/C(=C/c2cc(Br)cc(Br)c2OC)S1 | > 320 | > 320 |  | 
28 | COc1cccc(OC)c1/C=C1\SC(=S)NC1=O | > 320 | 186 |  | 
29 | O=C1NC(=S)S/C1=C\c1cccc(Cl)c1F | 79.9 | 123 |  | 
30 | O=C1NC(=S)S/C1=C\c1cc(F)ccc1F | 211 |  |  | 
31 | O=C1NC(=S)S/C1=C\c1ccc(Cl)c(Cl)c1 [drawing 37] | > 320 | > 320 |  | 
32 | O=C1NC(=S)S/C1=C\c1cc([N+](=O)[O-])ccc1Cl | 81.6 | 88.9 |  | 
33 | O=C1NC(=S)S/C1=C\c1ccc(Br)cc1F | 60 | 28.5 |  | 
34 | O=C1NC(=S)S/C1=C\c1cc([N+](=O)[O-])ccc1OC(F)F | 96 | 52.9 |  | 
35 | O=C1NC(=S)S/C1=C\c1cc([N+](=O)[O-])ccc1F | 89.7 | 101 |  | 
36 | CC(C)(C)c1ccc(Oc2ccc([N+](=O)[O-])cc2/C=C2\SC(=S)NC2=O)cc1 | 4.38 | 7.03 |  | 
37 | COc1ccc([N+](=O)[O-])cc1/C=C1\SC(=S)NC1=O | 89 | 126 |  | 
38 | O=C1NC(=S)S/C1=C\c1ccc(Cl)c(Cl)c1 [drawing 34] | 37.2 | 61.6 |  | 
39 | O=C1NC(=S)S/C1=C\c1ccc(Cl)c([N+](=O)[O-])c1 | 24.2 | 27.2 |  | 
40 | O=C1NC(=S)S/C1=C\c1cc(F)c(F)cc1F | 121 | 203 |  | 
41 | O=C1NC(=S)S/C1=C\c1cc([N+](=O)[O-])ccc1Sc1ccc(Cl)cc1 | 3.53 | 4.62 |  | 
42 | O=C1NC(=S)S/C1=C\c1cc(C(F)(F)F)ccc1F | 45.1 | 108 |  | 
43 | COc1cc(F)c(/C=C2\SC(=S)NC2=O)cc1OC | > 320 | > 320 |  | 
44 | O=C1NC(=S)S/C1=C\c1ccc(F)cc1F | 288 | 315 |  | 
45 | O=C1NC(=S)S/C1=C\c1cccc(C(F)(F)F)c1F | 67.9 | 166 |  | 
46 | COc1cc(/C=C2\SC(=S)NC2=O)c([N+](=O)[O-])cc1OC | > 320 | > 320 |  | 
47 | O=C1NC(=S)S/C1=C\c1c(Cl)cccc1Cl | 102 | 162 |  | 
